Laboratory results: US11246857B2, “Anti-fungal inhibitors” (THE JOHNS HOPKINS UNIVERSITY, priority 2017, dated 2022)
In brackets after ≈: the same amount, converted by molar mass. Entries after “also recorded” stand apart in the source; their conditions may differ. Where two headings read alike, the source gives them in different places.

Tests used:
C. neoformans [1] = test: Growth inhibition assay (Bioscreen C, 2-fold dilution series, plating for fungicidal vs fungistatic) in C. neoformans; assay type: cell-based, Cryptococcus neoformans H99; conditions: for antifungal activity (in words): dose-response; for fungicidal activity, lowest concentration: plated after 72 h, 24 h recovery at 30° on Sabouraud agar
Experimental: Primary screen and dose-response of selected candidates. To identify antifungal candidates in the MMV Malaria Box, the inventors initially casted the widest possible net. Growth inhibition assays were done using the Bioscreen C™ with constant agitation, in rich media and physiological relevant temperature of 37° to test the 400 antimalarial compounds against C. neoformans. […] To examine whether or not each dose was fungicidal or just fungistatic, the inventors plated a sample of each dilution after 72 hours. They were allowed to grow at the optimal growth temperature of 30° for 24 hours on Sabouraud rich agar plates and colonies were examined for growth. […]
(§1) Strains. H99 (Serotype A) is a well-characterized wild type laboratory reference strain of Cryptococcus neoformans (22). H99 was selected because it is a virulent strain widely by the field. Cryptococcus gattii strain R265 is used as the primary reference strain to which the genome is based (ATCC MYA-4093). This strain was isolated from the Vancouver Island (British Columbia, Canada) outbreak of 2004 (23, 24). H99 and R265 were maintained in Sabouraud (Sab) dextrose broth at 30° C. with constant 200 RPM agitation. One day prior to each experimental drug treatment, Sab broth was inoculated from glycerol stock and grown overnight to log phase before washing with PBS and resuspending in fresh Sab broth prior to treatment.
(§2) Compound library. 400 compounds were made available by the Medicines for Malaria Venture (Geneva, Switzerland) in the form of the open-access MMV Malaria Box. Compounds were stored at −80° C. in 100% DMSO at a concentration of 10 mM. Before usage, compounds were thawed at room temperature and thoroughly mixed. Compounds were diluted in 2-fold series 10 mM down to […] with DMSO before subsequent growth inhibition assays. Growth inhibition assays. The effectiveness of these MMV Malaria Box compounds against C. neoformans was measured by turbidity over time. The Bioscreen C™ (Growth Curves USA, Piscataway, N.J.) allows us to analyze ˜60 compounds at a time in triplicate with constant temperature and agitation. Assays were measured at 420-580 nm, wideband range every 15′ for 72 h at 37° C. to simulate physiologically relevant temperatures. Wideband is generally used for turbidity measurements, as it is mostly insensitive to changes in color. […] We inoculated 5×10^3 H99 C. neoformans and SC5314 C. albicans in 200 μl of Sabouraud dextrose broth in each of the honeycomb (HC-2) plate's 100 wells. A two-fold dilution series of each compound from 50 μM down to 0.39 μM final concentration were tested for effects against C. neoformans. To qualitatively differentiate fungistatic and fungicidal activity, 5 μl of each well after 72 h were spotted on Sabouraud dextrose agar rich media plates and allowed to grow at the optimal temperature 30° C. to induce a full recovery of viable yeast. Spots were noted after 24 h to identify fungicidal versus fungistatic concentrations of each compound. […] Mammalian cell viability and toxicity assays.

L. prolificans = test: Growth inhibition assay, 2-fold dilution series, in L. prolificans; assay type: cell-based, Lomentospora prolificans; conditions: for MIC: Lomentospora prolificans, after 72 h
C. albicans = test: Growth inhibition assay, 2-fold dilution series, in C. albicans; assay type: cell-based, Candida albicans SC5314; conditions: for MIC: Candida albicans, after 72 h
Experimental: as §2

C. gattii = test: Growth inhibition assay, 2-fold dilution series, in C. gattii; assay type: cell-based, Cryptococcus gattii R265; conditions: for MIC: Cryptococcus gattii, after 72 h
Experimental: as §1, §2

C. neoformans [2] = test: Imaging flow cytometry (Amnis ImageStream) of DM262 treated C. neoformans; assay type: cell-based, Cryptococcus neoformans
[3] = test system: murine bone marrow derived macrophages (BMDM); test: Mammalian cell lysis, LDH release assay in BMDM; assay type: cell-based
human fibroblast = test: Toxicity against human fibroblast; assay type: cell-based
Source text: XlogP values are derived from PubChem and describe the lipophilicity of the molecule. The topological polar surface area (tPSA) is a metric for predicting cell penetration, with values <140 to be favorable. […] Toxicity against human fibroblast was used to calculate the therapeutic index TI.

[4] = test system: murine bone marrow derived macrophages (BMDM); test: Mammalian cell viability, MTT assay in BMDM; assay type: cell-based
[5] = 72 h drug exposure in liquid culture, then recovery on agar plates overnight
[6] = Cryptococcus neoformans, C. neoformans, after 72 h, read-out: MIC
[7] = highest concentration studied 50 μM

Row | Structure (SMILES) | MIC (C. neoformans [1]; [5]) | MIC (C. neoformans [1]; [6]) | MIC (L. prolificans) | MIC (C. albicans) | MIC (C. gattii) | antifungal activity (in words) (C. neoformans [1]; C. neoformans) | fold more effective than fluconazole (fungicidal activity) (C. neoformans [1]; C. neoformans) | fungicidal activity, lowest concentration (C. neoformans [1]; C. neoformans) | Toxicity human fibroblast (human fibroblast) | also measured
1 | OC(Cn1cncn1)(Cn1cncn1)c1ccc(F)cc1F [Fluconazole] | 7.6 µg/mL | 25 µM | > 50 µM | > 50 µM | 50 µM (≈ 15.3 µg/mL) | – | – | – | – | fungicidal concentration (L. prolificans; [7]): > 50 µM; response in growth inhibition assay (in words) (L. prolificans; up to the highest concentration tested, 50 μM): complete resistance; effect on final OD420-580 (in words) (C. albicans): only slight decrease; fungicidal concentration (C. albicans; [7]): > 50 µM; concentration at which growth was unaffected (C. gattii): ≤ 6.3 µM
2 | Cc1ccc(Nc2nc(-c3ccccn3)cs2)cc1 [Compound 64] | 1.6 µg/mL | – | – | – | – | low activity | – | – | – | –
3 | Nc1ccc(-c2nc3ccc(Cc4ccc5nc(C6CCC(N)CC6)[nH]c5c4)cc3[nH]2)cc1 (centres unmarked) [DM262] | 0.3 µg/mL | 0.8 µM | 6.3 µM (≈ 2.75 µg/mL) | 0.8 µM (≈ 0.349 µg/mL) | 50 µM (≈ 21.8 µg/mL) | – | 16 fold | 1.56 µM | 11.4 µM | fold more effective than fluconazole (fungistatic activity) (C. neoformans [1]; C. neoformans): 32 fold; fungistatic activity, lowest concentration (C. neoformans [1]; C. neoformans, 72 h): 0.8 µM; concentration at which cells were dramatically trending towards apoptosis (apoptotic index, IDEAS 6.2) (C. neoformans [2]; 24 h treatment, morphology of the nucleus): 6.25 µM; effect on average size of the cells (C. neoformans [2]; brightfield, ImageStream): No significant change; also recorded: no effect; LD50 ([3]; BMDM cell lysis, LDH release): 50 µM; concentration with minimal variance from DMSO vehicle control ([3]; BMDM, LDH): up to 12.5 μM; concentration with minimal variance from DMSO vehicle control ([4]; BMDM): up to 12.5 μM; LD50 ([4]; BMDM viability): 50 µM; concentration giving significant delay in growth (C. gattii): ≥ 12.5 µM; time until log phase is reached (C. gattii; 12.5 μM treatment, growth curves): approximately 48 h
4 | O=C(Nc1cccc(C(F)(F)F)c1)c1cc(Cl)ccc1O [Compound 155] | 0.5 µg/mL | – | – | – | – | – | 8 fold | 3.12 µM | 0.024 µM | –
5 | Cc1ccc2c(c1)c1cc(C)ccc1n2CC(O)CNC1CCCCC1 (centres unmarked) [Compound 380] | 0.9 µg/mL | – | – | – | – | – | 8 fold | 3.12 µM | 4.03 µM | –
6 | Cc1ccc2cc3c(N)c4c(C)ccc(C)c4nc3nc2c1 [Compound 253] | 7.2 µg/mL | – | – | – | – | low activity | – | – | 11.4 µM | –
